Values quoted from earlier work in publication PMC10783161 (RSC Advances, 2024).

Conditions: biphasic elimination, slower terminal phase

terminal phase half-life: 4 to 11 h
Compound: COc1cc([C@@H]2c3cc4c(cc3[C@@H](O[C@@H]3O[C@@H]5CO[C@@H](C)O[C@H]5[C@H](O)[C@H]3O)[C@H]3COC(=O)[C@H]23)OCO4)cc(OC)c1O [ETP, etoposide]
